# Key:
# Format in all cases: in vivo
# [1] = tested on: Echinochloa crus-galli (ECHCG); assay: Example B post-emergence herbicidal test, ECHCG; conditions: Echinochloa crus-galli, 312 h, rate 250 g/ha, evaluated after 13 days, scale 0-100, read-out: Post-emergence activity ECHCG (100=total damage to plant; 0=no damage to plant)
# How it was run: (§1)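 Foliar application to 8-day-old pot-grown seedlings in a glasshouse (24/16 °C, 14 h photoperiod, 65% humidity). Spray solution was derived from an acetone/water (50:50) formulation with 0.5% Tween 20. Injury was assessed 13 days later on a 0–100 scale.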
# [2] = tested on: Lolium perenne (LOLPE); assay: Example B post-emergence herbicidal test, LOLPE; conditions: Lolium perenne, 312 h, rate 250 g/ha, evaluated after 13 days, scale 0-100, read-out: Post-emergence activity LOLPE (100=total damage to plant; 0=no damage to plant)
# How it was run: as §1
# [3] = tested on: Alopecurus myosuroides (ALOMY); assay: Example B pre-emergence herbicidal test, ALOMY; conditions: Alopecurus myosuroides, 312 h, rate 250 g/ha, evaluated after 13 days, 100=total damage to plant, 0=no damage to plant
# How it was run: (§2)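 After sowing in standard soil, pots spent a day in the glasshouse (24/16° C, 14 h photoperiod, 65% humidity) before spraying with compound in acetone/water 50:50 with 0.5% Tween 20. Watering followed twice a day, and plants were evaluated 13 days on, with 100 meaning complete damage.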
# [4] = tested on: Avena fatua (AVEFA); assay: Example B post-emergence herbicidal test, AVEFA; conditions: Avena fatua, 312 h, rate 250 g/ha, evaluated after 13 days, scale 0-100, read-out: Post-emergence activity AVEFA (100=total damage to plant; 0=no damage to plant)
# How it was run: as §1
# [5] = tested on: Avena fatua (AVEFA); assay: Example B pre-emergence herbicidal test, AVEFA; conditions: Avena fatua, 312 h, rate 250 g/ha, evaluated after 13 days, 100=total damage to plant, 0=no damage to plant
# How it was run: as §2
# [6] = tested on: Lolium perenne (LOLPE); assay: Example B pre-emergence herbicidal test, LOLPE; conditions: Lolium perenne, 312 h, rate 250 g/ha, evaluated after 13 days, 100=total damage to plant, 0=no damage to plant
# How it was run: as §2
# [7] = tested on: Alopecurus myosuroides (ALOMY); assay: Example B post-emergence herbicidal test, ALOMY; conditions: Alopecurus myosuroides, 312 h, rate 250 g/ha, evaluated after 13 days, scale 0-100, read-out: Post-emergence activity ALOMY (100=total damage to plant; 0=no damage to plant)
# How it was run: as §1
# [8] = tested on: Echinochloa crus-galli (ECHCG); assay: Example B pre-emergence herbicidal test, ECHCG; conditions: Echinochloa crus-galli, 312 h, rate 250 g/ha, evaluated after 13 days, 100=total damage to plant, 0=no damage to plant
# How it was run: as §2
SMILES,pest or weed control at 250 g/ha [1],pest or weed control at 250 g/ha [2],pest or weed control at 250 g/ha [3],pest or weed control at 250 g/ha [4],pest or weed control at 250 g/ha [5],pest or weed control at 250 g/ha [6],pest or weed control at 250 g/ha [7],pest or weed control at 250 g/ha [8]
COCCOC(=O)N1CCC(CC2CC(=O)C(c3c(C)cc(C)cc3C)C2=O)CC1 (stereo not drawn) [Compound T123],60%,70%,60%,90%,60%,60%,80%,60%
Cc1cc(C)c(C2C(=O)CC(CC3CCN(C(=O)c4cn(C)nc4C(F)F)CC3)C2=O)c(C)c1 (stereo not drawn) [Compound T124],20%,20%,20%,30%,10%,20%,30%,30%
Cc1cc(C)c(C2C(=O)CC(CC3CCN(C(=O)c4ccsc4)CC3)C2=O)c(C)c1 (stereo not drawn) [Compound T126],60%,70%,30%,70%,40%,60%,50%,50%
Cc1cc(C)c(C2C(=O)CC(CC3C[C@@H]4O[C@H]3[C@@H]3C(=O)N(C)C(=O)[C@@H]34)C2=O)c(C)c1 (stereo partly drawn) [Compound T128],50%,50%,70%,90%,40%,50%,40%,60%
Cc1cc(C)c(C2C(=O)CC(CC3OCCO3)C2=O)c(C)c1 (stereo not drawn) [Compound T130],60%,90%,70%,70%,10%,100%,60%,30%
Cc1cc(C)c(C2C(=O)CC(CC3CCN(C(=O)C(F)(F)C(F)F)C3)C2=O)c(C)c1 (stereo not drawn) [Compound T131],90%,100%,70%,90%,70%,90%,90%,100%
Cc1cc(-c2ccc(Cl)cc2F)cc(C)c1C1C(=O)C/C(=C\C2CCOCC2)C1=O (stereo not drawn) [Compound T132],100%,70%,20%,80%,70%,70%,70%,90%
Cc1cc(-c2ccc(Cl)cc2F)cc(C)c1C1C(=O)C/C(=C\C2CCOC2)C1=O (stereo not drawn) [Compound T135],90%,70%,0%,80%,30%,40%,80%,60%
Cc1cc(Br)cc(C)c1C1C(=O)CC(CC2CCOCC2)C1=O (stereo not drawn) [Compound T138],70%,90%,80%,90%,70%,90%,90%,90%
Cc1cc(-c2ccccc2F)cc(C)c1C1C(=O)CC(CC2CCOCC2)C1=O (stereo not drawn) [Compound T139],100%,90%,70%,90%,60%,80%,90%,90%
Cc1cc(-c2ccccc2F)cc(C)c1C1C(=O)CC(CC2CCOC2)C1=O (stereo not drawn) [Compound T140],90%,90%,60%,60%,50%,70%,90%,90%
Cc1cc(C)c(C2C(=O)CC(CC3CCN(C(=O)C4CC4)C3)C2=O)c(C)c1 (stereo not drawn) [Compound T141],60%,70%,80%,90%,80%,80%,80%,80%
Cc1cc(C)c(C2C(=O)CC(CC3CCN(C(=O)C(C)C)C3)C2=O)c(C)c1 (stereo not drawn) [Compound T142],60%,70%,90%,90%,80%,70%,90%,90%
Cc1cc(C)c(C2C(=O)CC(CC3CCN(C(=O)C(C)(C)C)C3)C2=O)c(C)c1 (stereo not drawn) [Compound T143],60%,60%,80%,80%,50%,100%,60%,100%
CC(C)=CC(=O)N1CCC(CC2CC(=O)C(c3c(C)cc(C)cc3C)C2=O)C1 (stereo not drawn) [Compound T144],80%,80%,80%,90%,70%,70%,80%,90%
Cc1cc(C)c(C2C(=O)CC(CC3CCN(C(=O)C(C)(C)CCl)C3)C2=O)c(C)c1 (stereo not drawn) [Compound T145],30%,40%,60%,50%,30%,50%,60%,20%
Cc1cc(C)c(C2C(=O)CC(CC3CCN(C(=O)c4cccs4)C3)C2=O)c(C)c1 (stereo not drawn) [Compound T146],70%,80%,70%,90%,50%,90%,80%,70%
Cc1cc(C)c(C2C(=O)CC(CC3CCN(C(=O)c4ccco4)C3)C2=O)c(C)c1 (stereo not drawn) [Compound T147],50%,40%,50%,70%,10%,30%,60%,40%
Cc1cc(C)c(C2C(=O)CC(CC3CCN(C(=O)c4c(C)noc4C)C3)C2=O)c(C)c1 (stereo not drawn) [Compound T148],60%,70%,70%,100%,40%,50%,80%,30%
COc1ccc(CC2C(=O)C(c3c(C)cc(C)cc3C)C(=O)C2CC2CCOC2)cc1 (stereo not drawn) [Compound T149],20%,40%,30%,40%,10%,20%,30%,30%
Cc1cc(C)c(C2C(=O)C(Cc3ccccc3)C(CC3CCOC3)C2=O)c(C)c1 (stereo not drawn) [Compound T151],40%,20%,20%,10%,10%,30%,30%,40%

# From patent publication US9096560B2, “5-heterocyclylalkyl-3-hydroxy-2-phenylcyclopent-2-enones as herbicides” (Syngenta Limited, priority 2008, dated 2015)
